Target: MRGPRX4 (Homo sapiens, UniProt Q96LA9)
Test: MRGPR X4 antagonist activity, IP-One Gq HTRF assay in stably transfected HEK cells (versus agonist bilirubin, deoxycholic acid, conjugated bilirubin, urobilin, obeticholic acid or BAR502)
Assay type: cell-based
Set-up: expressed in transfected cells; host or cells: HEK cells, stably transfected
Details: versus 10 μM Bilirubin agonist; HEK cells expressing human MRGPR X4; read-out: MRGPR4 Antagonist Activity
Procedure: HEK cells stably transfected to express human MRGPR X4 were maintained in an incubator at 37° C. with 5% CO2 and grown in DMEM media with 10% fetal bovine serum (FBS) and 1% each of sodium pyruvate, Glutamax, penicillin/streptomycin, and Geneticin. HEK cells stably transfected to express mouse MRGPR A1 were maintained in the same incubator and grown in DMEM media with 10% FBS, 1% each of sodium pyruvate, Glutamax, penicillin/streptomycin, Geneticin, and 2.2 mg/mL Hygromycin.
Cells were plated in a 384-well assay plate at 20,000 cells per well in 12 μL of Opti-MEM and kept in an incubator overnight. On the day of the assay, compounds solubilized at 10 mM in DMSO were added as a 10-point curve (10 uM final top concentration with 1:3 serial dilutions) using a Tecan D300E digital dispenser. […] Final concentrations of DMSO were kept consistent across the plate. Plates were incubated in the dark for 1 h at 37° C. and then for 30 minutes at room temperature. IP-1 standards and HTRF detection reagents were added according to the IP-One—Gq Kit purchased from Cisbio (part number 62IPAPEJ) and incubated in the dark for 1 h at room temperature. The plate was read on a Molecular Devices SpectraMax iD5 plate reader. The HTRF ratio was calculated from the raw data and graphed using GraphPad Prism to calculate an IC50 value for each compound.

Sequence of MRGPRX4 (Q96LA9 whole entry): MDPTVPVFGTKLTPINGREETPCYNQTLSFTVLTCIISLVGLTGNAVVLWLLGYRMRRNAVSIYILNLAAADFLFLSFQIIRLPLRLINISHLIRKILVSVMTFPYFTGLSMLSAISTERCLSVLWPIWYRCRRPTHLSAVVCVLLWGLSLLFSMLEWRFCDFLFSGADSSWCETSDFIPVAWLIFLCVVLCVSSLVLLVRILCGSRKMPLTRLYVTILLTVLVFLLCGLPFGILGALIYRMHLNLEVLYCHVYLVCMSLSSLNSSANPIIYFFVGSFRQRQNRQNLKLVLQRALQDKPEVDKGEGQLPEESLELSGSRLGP

SMILES	IC50 [nM]
O=C(O)c1cccc(CNc2ccc3ccccc3c2)c1 [Compound 12-2]	500 to 1000
COC(=O)c1ccc(COc2ccc(Cl)cc2Cl)s1 [Compound 1-14]	1000 to 2500
Fc1ccc(OCc2cccc(-c3nnn[nH]3)c2)c(Cl)c1 [Compound 17-7]	< 100
COC(=O)c1cccc(COc2ccc3scnc3c2)c1 [Compound 1-8]	> 2500
N#Cc1cc(C#Cc2ccc(C(F)(F)F)cc2Cl)cc(C(=O)O)c1 [Compound 60-1, 3-((2-chloro-4-(trifluoromethyl)phenyl)ethynyl)-5-cyanobenzoic acid]	100 to 500
O=C(O)c1cccc(COc2ccc(OC(F)(F)F)c(Cl)c2)c1 [Compound 1-132]	< 100
O=C(O)c1cccc(COc2ccc(Cl)c(Cl)c2F)c1 [Compound 1-149]	< 100
Cc1cc(-c2ccccc2)ccc1OCc1cccc(C(=O)O)c1 [Compound 1-51]	1000 to 2500
Cc1ccc(OCc2cccc(C(=O)O)c2)cc1F [Compound 1-89]	100 to 500
O=C(O)c1cccc(CNc2ccc(Cl)cc2Cl)c1 [Compound 12-1, 3-(((2,4-dichlorophenyl)amino)methyl)benzoic acid]	100 to 500
O=C(O)c1cccc(COc2ccc(OC(F)(F)F)cc2Cl)c1 [Compound 1-103]	< 100
Cc1cc(OCc2cccc(C(=O)O)c2)ccc1C#N [Compound 1-145]	100 to 500
O=C(O)c1cccc(COc2cccc(C(F)(F)F)c2Cl)c1 [Compound 1-79]	100 to 500
O=C(O)c1ccccc1COc1ccc(Cl)cc1Cl [Compound 1-114]	1000 to 2500
O=C(O)c1cccc(COc2ccc(Br)cc2)c1 [Compound 1-110]	100 to 500

More lines, now with the values ahead:

IC50 [nM]	SMILES
< 100	Cc1cc(COc2ccc(OC(F)(F)F)cc2Cl)cc(C(=O)O)c1 [Compound 4-14]
1000 to 2500	COc1cc(C(=O)O)ccc1OCc1ccc(Cl)cc1 [Compound 1-20]
< 100	Cc1cc(Cl)ccc1OCc1cccc(-c2nnn[nH]2)c1 [Compound 17-13]
> 2500	O=C(O)c1cccc(COc2ccc(Oc3ccccc3)cc2)c1 [Compound 1-52]
100 to 500	N#CCNC(=O)c1ccc(COc2ccc(C(F)(F)F)cc2Cl)cc1 [Compound 52-6]
500 to 1000	FC(F)(F)c1ccc(OCc2ccc(-c3nnn[nH]3)cc2)c(Cl)c1 [Compound 17-12]
500 to 1000	O=C(O)c1cccc(COc2ccc(N3CCCC3)cc2Cl)c1F [Compound 4-24]
500 to 1000	O=C(O)c1cc(COc2ccc(C(F)(F)F)cc2Cl)cc(-c2ccccc2)c1 [Compound 8-4]
1000 to 2500	O=C(O)c1ccc(F)c(COc2ccc(Cl)cc2Cl)c1 [Compound 4-2]
> 2500	O=C(O)c1cccc(COc2ccc(F)cc2Cl)c1 [Compound 1-24]
1000 to 2500	O=C(O)c1cccc(COc2ccc(C(F)(F)F)nc2)c1 [Compound 1-102]
1000 to 2500	CCc1c(COc2ccc(C(F)(F)F)cc2Cl)cccc1C(=O)O [Compound 37-1, 3-((2-chloro-4-(trifluoromethyl)phenoxy)methyl)-2-ethylbenzoic acid]
100 to 500	O=C(O)c1cc(COc2ccc(C(F)(F)F)c(Cl)c2)cc(C(F)(F)F)c1 [Compound 4-16]
1000 to 2500	Cc1ccc(OCc2cccc(C(=O)O)c2)c(F)c1 [Compound 1-77]
100 to 500	NC(=O)CNC(=O)c1cccc(COc2ccc(C(F)(F)F)cc2Cl)c1 [Compound 52-22]
< 100	Cc1cc(C(F)(F)F)ccc1OCc1cccc(C(=O)O)n1 [Compound 1-127]
100 to 500	O=C(O)c1cccc(COc2ccc(-n3cccc3)cc2)c1 [Compound 1-80]
